Values quoted from earlier work as cited in US10188610B2, “Prolonged-release diphenidol composition” (INVEKRA, S.A.P.I. DE C.V., priority 2013, dated 2019).
Structures can show the parent of a compound that is named as a salt.

Conditions: after oral administration

half life: 4 h
SMILES: OC(CCCN1CCCCC1)(c1ccccc1)c1ccccc1 [Diphenidol hydrochloride, α,α-diphenil-1-piperidinebutanol]
